Laboratory results: EP4775577A1, “RAS INHIBITOR” (Tyligand Bioscience (Shanghai) Limited, priority 2023, dated 2025)
Read-outs that look alike come from different tables or passages of the source.

Columns and labels:
[1] = test system: KRAS G12D mutant AGS cells; assay: Proliferation inhibition of AGS cells, CellTiter-Glo assay; type: cell-based, human; details: 3 days, CTG, read-out: AGS IC50/nM
Method: AGS cells (Nanjing Kebai Biotechnology Co., Ltd., catalog number CBP60476, adherent, culture medium (F12K Nutrient Mixture+10% FBS (GIBCO, Cat#10091-148) were cultured at 37°C, 5% CO2, and 95% humidity at a density of 1500 cells/well. Cells in the logarithmic growth phase were harvested and counted using a Countstar automated cell counter based on the classic trypan blue staining method to ensure cell viability was above 90%. The cell concentration was adjusted, and 80 µL of cell suspension was added to each 96-well clear flat-bottomed, black-walled plate (Greiner, Cat# 655090). The cells in the 96-well plates were then cultured at 37°C and 5% CO2.
Drug preparation for IC50 assay: A 5-fold drug solution was prepared using culture medium. 20 µL of the drug solution was added to each well of a 96-well plate seeded with cells to achieve a working concentration of up to 10 µM, with a 3 × dilution, and a total of 9 concentrations. 2 replicate wells for each drug concentration were set. The cells in the drug-treated 96-well plates were cultured at 37°C and 5% CO2 for additional 3 days and then CTG assay were performed.
The cell plate was equilibrated to room temperature for 30 minutes and the CTG reagent (CellTiter-Glo® Luminescent Cell Viability Assay (Promega, Cat# G7573)) was thawed. 50 µL of CTG solution was added to each well and the plate was shaken on an orbital shaker for 2 minutes to lyse the cells. The cell plate was placed at room temperature for 10 minutes to stabilize the cryo-luminescence signal and the cryo-luminescence value was read (EnVision® Multifunctional microplate reader, PerkinElmer #2105).
(§1) Data was analyzed using GraphPad Prism software. The dose-response-inhibition equation was used to fit the data to obtain the dose-response curve, and the IC50 value (nM) was calculated accordingly. [formula]

[2] = test system: KRAS G12V mutant NCI-H727 cells; assay: Proliferation inhibition of NCI-H727 cells, 3D CellTiter-Glo assay (Method B); type: cell-based, human; details: Method B, 3D culture with 0.65% methylcellulose, 5 days, CTG, read-out: NCI-H727 IC50/nM
Method: NCI-H727 cells (Nanjing Kebai Biotechnology Co., Ltd., catalog number CBP60182, adherent, culture medium RPMI-1640+10%FBS (GIBCO, Cat#10091-148)) were cultured at 37°C, 5% CO2, and 95% humidity.
3D cell viability assay: Cells in the logarithmic growth phase were harvested and counted using a platelet counter. Cell viability was assessed using the trypan blue exclusion method to ensure a viability of over 90%. The 3D cell culture medium was prepared by adding 1% MC (methylcellulose, Sigma, Cat#M0512) to RPMI-1640 medium and 10% FBS. The cell concentration was adjusted to approximately 25,000 cells/mL using the 3D medium, and the methylcellulose (MC) content was set to 0.65%. Then, 80 µL of cell suspension was added to each 96-well clear, flat-bottomed, black-walled plate (Greiner, Cat# 655096). The cells in the 96-well plates were cultured overnight at 37°C and 5% CO2.
Drug preparation for IC50 assay: A 5-fold drug solution was prepared using culture medium. 20 µL of the drug solution was added to each well of a 96-well plate seeded with cells to achieve a working concentration of up to 10 µM, with a 3× dilution, and 9 concentrations. 2 replicate wells for each drug concentration were set. The cells in the drug-treated 96-well plates were cultured at 37°C and 5% CO2 for additional 5 days, then CTG assay (CellTiter-Glo® Luminescent Cell Viability Assay (Promega, Cat#G7573)) were performed.
The cell plate was equilibrated to room temperature for 30 minutes and the CTG reagent was thawed. 50 µL of CTG solution was added to each well for detection and the plate was shaken on an orbital shaker for 5 minutes to lyse the cells. The cell plate was then placed at room temperature for 25 minutes to stabilize the cryo-luminescence signal, and the cryo-luminescence value was read (EnVision® multi-plate reader, PerkinElmer#2105).
as §1

IC50 ([1]; Homo sapiens, AGS, 72 h) [nM] | IC50 ([2]; Homo sapiens, NCI-H727, 120 h) [nM] | Compound | IC50 [1] [nM] | IC50 [2] [nM]
19.7 | 39.8 | COCc1cc2c(N3Cc4cc(C(=O)N(C)C)nn4CC[C@@H]3C)nc(OC[C@]3(C)CN(C)CC/C3=C\F)nc2c(F)c1-c1c(F)ccc2sc(N)c(C#N)c12 (single isomer, unassigned) [Example 226A] | – | –
9.9 | 20.2 | CN1CC/C(=C\F)[C@](C)(COc2nc(N3CCCn4nc(C(=O)N(C)C)cc4C3)c3cc(/C=C\F)c(-c4cccc5sc(N)c(C#N)c45)c(F)c3n2)C1 [Example 112] | – | –
41.5 | 2.1 | CN1CC/C(=C\F)[C@](C)(COc2nc(N3CC[C@@H](C#N)[C@H](O)C3)c3cc(C(F)(F)F)c(-c4c(F)ccc5sc(N)c(C#N)c45)c(F)c3n2)C1 (single isomer, unassigned) [Example 252] | – | –
– | 4.3 | CN1CC/C(=C\F)[C@](C)(COc2nc(N3CCCn4nc(C(=O)N(C)C)c(Cl)c4C3)c3cc(C4CC4)c(-c4c(F)ccc5sc(N)c(C#N)c45)c(F)c3n2)C1 (single isomer, unassigned) [Example 161A] | 2.4 | –
49.6 | 43.1 | Cc1cc(N)nc(-c2c(Cl)cc3c(N4Cc5cc(C(=O)N(C)C)nn5CCC4C)nc(OCC4(C)CN(C)CCC4=CF)nc3c2F)c1C(F)(F)F (single isomer, unassigned) [Example 213A] | – | –
179 | 439 | CN1CC/C(=C\F)[C@](C)(COc2nc(N3CCCn4nc(N)c(C(=O)N(C)C)c4C3)c3cc(C(F)(F)F)c(-c4cccc5sc(N)c(C#N)c45)c(F)c3n2)C1 [Example 121] | – | –
1.75 | 6.3 | [2H]C([2H])([2H])N1CC[C@H](C(F)F)[C@](C)(COc2nc(N3CCCn4nc(C(=O)N(C)C)cc4C3)c3cc(C(F)(F)F)c(-c4c(F)ccc5sc(N)c(C#N)c45)c(F)c3n2)C1 [Example 67, 5-(7-(2-Amino-3-cyano-5-fluorobenzo[b]thiophene-4-yl)-2-(((3S,4S)-4-(difluoromethyl)-3-methyl-1-(methyl-d3)piperidine-3-yl)methoxy)-8-fluoro-6-(trifluoromethyl)quinazoline-4-yl)-N,N-dimethyl-5,6,7,8-tetrahydro-4H-pyrazolo[1,5-a][1,4]diazepine-2-formamide] | – | –
12.8 | 35.5 | CNC(=O)c1cc2n(n1)CCCN(c1nc(OC[C@]3(C)CN(C)CC/C3=C\F)nc3c(F)c(-c4cccc5sc(N)c(C#N)c45)c(C(F)(F)F)cc13)C2 [Example 118] | – | –
– | – | CN1CC[C@H](C(F)F)[C@](C)(COc2nc(N3CCOC[C@@](C)(O)C3)c3cc([N+](=O)[O-])c(-c4cccc5sc(N)c(C#N)c45)c(F)c3n2)C1 (atropisomer, axis not shown; (Ra)) [Example 86A] | 4.9 | 1.9
338 | 26.9 | CN1CCC(=CF)C(C)(COc2nc(N3CCC(C#N)C(O)C3)c3cc(C(F)(F)F)c(-c4cccc5sc(N)c(C#N)c45)c(F)c3n2)C1 (centres unmarked) [Example 105] | – | –
84.7 | 48.5 | [2H]C([2H])([2H])N1CC[C@H](C(F)F)[C@](C)(COc2nc(N3CCOC[C@@](C)(O)C3)c3cc(C#N)c(-c4cccc5sc(N)c(C#N)c45)c(F)c3n2)C1 [Example 91] | – | –
1.7 | 2.2 | CCN1CC/C(=C\F)[C@](C)(COc2nc(N3Cc4c(COC)c(C(=O)N(C)C)nn4CC[C@@H]3C)c3cc(C(F)(F)F)c(-c4ncc(F)c5sc(N)c(C#N)c45)c(F)c3n2)C1 (single isomer, unassigned) [Example 230A] | – | –
10.5 | 36.1 | [2H]C([2H])([2H])N1CC[C@H](C(F)F)[C@](C)(COc2nc(N3CCCn4nc(C(=O)N(C)C)cc4C3)c3cc([N+](=O)[O-])c(-c4cccc5sc(N)c(C#N)c45)c(F)c3n2)C1 [Example 95, 5-(7-(2-Amino-3-cyanobenzo[b]thiophene-4-yl)-2-(((3S,4S)-4-(difluoromethyl)-3-methyl-1-(methyl-d3)piperidine-3-yl)methoxy)-8-fluoro-6-nitroquinazoline-4-yl)-N,N-dimethyl-5,6,7,8-tetrahydro-4H-pyrazolo[1,5-a][1,4]diazepine-2-formamide] | – | –
148 | 66.9 | CN1CC/C(=C\F)[C@](C)(COc2nc(N3CCC[C@@](C)(O)C3)c3cc(C(F)(F)F)c(-c4cccc5sc(N)c(C#N)c45)c(F)c3n2)C1 (atropisomer, axis not shown) [Example 4A, (R)-2-amino-4-(8-fluoro-2-(((S,E)-4-(fluoromethylene)-1,3-dimethylpiperidine-3-yl)methoxy)-4-((R)-3-hydroxy-3-methylpiperidine-1-yl)-6-(trifluoromethyl)quinazoline-7-yl)benzo[b]thiophene-3-carbonitrile] | – | –

Compound | IC50 ([1]; Homo sapiens, AGS, 72 h) [nM] | IC50 ([2]; Homo sapiens, NCI-H727, 120 h) [nM] | IC50 [1] [nM] | IC50 [2] [nM]
[2H]C([2H])([2H])N1CCC(=CF)C(C)(COc2nc(N3Cc4cc(C(=O)N(C)C)nn4CCC3C)c3cc(CC)c(-c4c(F)ccc5sc(N)c(C#N)c45)c(C)c3n2)C1 (centres unmarked) [Example 188] | 2.9 | 3.1 | – | –
[2H]C([2H])([2H])N1CCC(=CF)C(C)(COc2nc(N3CCCn4nc(C(=O)N(C)C)c(Cl)c4C3)c3cc(CC)c(-c4c(F)ccc5sc(N)c(C#N)c45)c(C)c3n2)C1 (centres unmarked) [Example 186] | 4.4 | 5.4 | – | –
CCN1CCC(=CF)C(C)(COc2nc(N3Cc4cc(C(=O)N5CCN(C)CC5)nn4CCC3C)c3cc(Cl)c(-c4c(F)ccc5sc(N)c(C#N)c45)c(F)c3n2)C1 (centres unmarked) [Example 261A] | < 1.5 | 1.9 | – | –
[2H]C([2H])([2H])N1CC[C@H](C(F)F)[C@](C)(COc2nc(N3CCOC[C@@](C)(O)C3)c3cc(Cl)c(-c4cccc5sc(N)c(C#N)c45)c(F)c3n2)C1 [Example 83] | 38.2 | 20.2 | – | –
[2H]C([2H])([2H])N1CC/C(=C\F)[C@](C)(COc2nc(N3Cc4c(C#C)c(C(=O)N(C)C)nn4CC[C@@H]3C)c3cc(CC)c(-c4c(F)ccc5sc(N)c(C#N)c45)c(F)c3n2)C1 (single isomer, unassigned) [Example 184A] | 3.4 | 4.3 | – | –
CCN1CC/C(=C\F)[C@](C)(COc2nc(N3Cc4cc(C(=O)N5CC(F)C5)nn4CC[C@@H]3C)c3cc(Cl)c(-c4c(F)ccc5sc(N)c(C#N)c45)c(F)c3n2)C1 [Example 277A] | < 1.5 | 1.8 | – | –
[2H]C([2H])([2H])N1CCC(=CF)C(C)(COc2nc(N3CCCn4nc(C(=O)N(C)C)c(Cl)c4C3)c3cc(Cl)c(-c4c(F)ccc5sc(N)c(C#N)c45)c(Cl)c3n2)C1 (centres unmarked) [Example 195] | 2.5 | 2.5 | – | –
[2H]C([2H])([2H])N1CC/C(=C\F)[C@](C)(COc2nc(N3Cc4cc(C(=O)NC)nn4CC[C@@H]3C)c3cc(CC)c(-c4c(F)ccc5sc(N)c(C#N)c45)c(F)c3n2)C1 [Example 270A] | 3.6 | 4.9 | – | –
CCN1CC/C(=C\F)[C@](C)(COc2nc(N3Cc4cc(C(=O)N(C)C)nn4CC[C@@H]3C)c3cc(Cl)c(-c4c(F)ccc5sc(N)c(C#N)c45)c(C(F)F)c3n2)C1 (single isomer, unassigned) [Example 242A] | 5.4 | 6.3 | – | –
CCC1CCn2nc(C(=O)N(C)C)cc2CN1c1nc(OCC2(C)CN(CC)CCC2=CF)nc2c(F)c(-c3c(F)ccc4sc(N)c(C#N)c34)c(Cl)cc12 (centres unmarked) [Example 250A] | < 1.5 | < 1.5 | – | –
[2H]C([2H])([2H])N1CCC(=CF)C(C)(COc2nc(N3Cc4cc(C(=O)N(C([2H])([2H])[2H])C([2H])([2H])[2H])nn4CCC3C)c3cc(CC)c(-c4c(F)ccc5sc(N)c(C#N)c45)c(F)c3n2)C1 (single isomer, unassigned) [Example 185A] | < 1.5 | < 1.5 | – | –
